Measured values as given in PubChem BioAssay AID1963449 (Molecular Pharmacology Branch, DTP, NCI, 2024).
Each block holds one compound with its values, some of them ahead of it.

Test system: 596521-263-R-J1-PDC complex spheroid growth
Test: Anticancer human tumor 596521-263-R-J1-PDC patient-derived soft tissue sarcoma cell line growth inhibition [Asc]
Details: for IC50: curve of first compound; for viability, T/C: stronger effect = lower value
Summary of the method: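 Spheroid model: tumor line + HUVEC + hMSC. Single agents and combinations; top conc. at/near clinical Cmax (10 microM if undetermined), half-log dilutions. DMSO stocks at 800-fold test concentration.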

[1] = second compound 0.0316 µM, first compound 0.0316 µM
[2] = second compound 0.0316 µM, first compound 0.1 µM
[3] = second compound 0.0316 µM, first compound 0.316 µM
[4] = second compound 0.0316 µM, first compound 1 µM
[5] = second compound 0.0316 µM, first compound 3.16 µM
[6] = second compound 0.0316 µM, first compound 10 µM
[7] = second compound 0.1 µM, first compound 0.0316 µM
[8] = second compound 0.1 µM, first compound 0.1 µM
[9] = second compound 0.1 µM, first compound 0.316 µM
[10] = second compound 0.1 µM, first compound 1 µM
[11] = second compound 0.1 µM, first compound 3.16 µM
[12] = second compound 0.1 µM, first compound 10 µM
[13] = second compound 0.316 µM, first compound 0.0316 µM
[14] = second compound 0.316 µM, first compound 0.1 µM
[15] = second compound 0.316 µM, first compound 0.316 µM
[16] = second compound 0.316 µM, first compound 1 µM
[17] = second compound 0.316 µM, first compound 3.16 µM
[18] = second compound 0.316 µM, first compound 10 µM
[19] = second compound 1 µM, first compound 0.0316 µM
[20] = second compound 1 µM, first compound 0.1 µM
[21] = second compound 1 µM, first compound 0.316 µM
[22] = second compound 1 µM, first compound 1 µM
[23] = second compound 1 µM, first compound 3.16 µM
[24] = second compound 1 µM, first compound 10 µM
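Note: spheroids exposed to compounds for 7 days.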

- IC50 (second compound 0.00316 µM): > 10 µM
- IC50 (second compound 0.01 µM): > 10 µM
- IC50 (second compound 0.0316 µM): > 10 µM
- IC50 (second compound 0.1 µM): > 10 µM
- IC50 (second compound 0.316 µM): > 10 µM
- IC50 (second compound 1 µM): > 10 µM
SMILES: C#Cc1c(F)ccc2cc(O)cc(-c3ncc4c(N5CC6CCC(C5)N6)nc(OCC56CCCN5CC(F)C6)nc4c3F)c12 (stereo unspecified) + CNC(C)C(=O)NC1CN(S(=O)(=O)c2cccc(S(=O)(=O)N3CCC4CCC(C(=O)NC(c5ccccc5)c5ccccc5)N4C(=O)C(NC(=O)C(C)NC)C3)c2)CCC2CCC(C(=O)NC(c3ccccc3)c3ccccc3)N2C1=O
- viability, T/C (second compound 0.00316 µM, first compound 0.0316 µM): 93.7%
- viability, T/C (second compound 0.00316 µM, first compound 0.1 µM): 89.4%
- viability, T/C (second compound 0.00316 µM, first compound 0.316 µM): 87.3%
- viability, T/C (second compound 0.00316 µM, first compound 1 µM): 105%
- viability, T/C (second compound 0.00316 µM, first compound 3.16 µM): 94.6%
- viability, T/C (second compound 0.00316 µM, first compound 10 µM): 81.8%
- viability, T/C (second compound 0.01 µM, first compound 0.0316 µM): 99.4%
- viability, T/C (second compound 0.01 µM, first compound 0.1 µM): 106%
- viability, T/C (second compound 0.01 µM, first compound 0.316 µM): 86.7%
- viability, T/C (second compound 0.01 µM, first compound 1 µM): 92.9%
- viability, T/C (second compound 0.01 µM, first compound 3.16 µM): 97.1%
- viability, T/C (second compound 0.01 µM, first compound 10 µM): 64.4%
- viability, T/C [1]: 90.2%
- viability, T/C [2]: 87.1%
- viability, T/C [3]: 99.6%
- viability, T/C [4]: 102%
- viability, T/C [5]: 90.6%
- viability, T/C [6]: 61.1%
- viability, T/C [7]: 91.5%
- viability, T/C [8]: 70.6%
- viability, T/C [9]: 83.5%
- viability, T/C [10]: 80%
- viability, T/C [11]: 84%
- viability, T/C [12]: 72.3%
- viability, T/C [13]: 80.3%
- viability, T/C [14]: 82.8%
- viability, T/C [15]: 91.2%
- viability, T/C [16]: 94.8%
- viability, T/C [17]: 78.7%
- viability, T/C [18]: 62.5%
- viability, T/C [19]: 74.7%
- viability, T/C [20]: 74.5%
- viability, T/C [21]: 81.2%
- viability, T/C [22]: 92.6%
- viability, T/C [23]: 83.3%
- viability, T/C [24]: 58.7%

- IC50 (second compound 0.00316 µM): > 3 µM
- IC50 (second compound 0.01 µM): > 3 µM
- IC50 (second compound 0.0316 µM): > 3 µM
- IC50 (second compound 0.1 µM): 2.25 µM
- IC50 (second compound 0.316 µM): > 3 µM
- IC50 (second compound 1 µM): 1.62 µM
SMILES: Cc1nc(N2CCC3(CC2)COC(C)C3N)c(CO)nc1Sc1ccnc(N)c1Cl (stereo unspecified) + CNC(C)C(=O)NC1CN(S(=O)(=O)c2cccc(S(=O)(=O)N3CCC4CCC(C(=O)NC(c5ccccc5)c5ccccc5)N4C(=O)C(NC(=O)C(C)NC)C3)c2)CCC2CCC(C(=O)NC(c3ccccc3)c3ccccc3)N2C1=O
- viability, T/C (second compound 0.00316 µM, first compound 0.00949 µM): 101%
- viability, T/C (second compound 0.00316 µM, first compound 0.03 µM): 93.3%
- viability, T/C (second compound 0.00316 µM, first compound 0.0949 µM): 98.7%
- viability, T/C (second compound 0.00316 µM, first compound 0.3 µM): 97.3%
- viability, T/C (second compound 0.00316 µM, first compound 0.949 µM): 75.8%
- viability, T/C (second compound 0.00316 µM, first compound 3 µM): 57.6%
- viability, T/C (second compound 0.01 µM, first compound 0.00949 µM): 96.9%
- viability, T/C (second compound 0.01 µM, first compound 0.03 µM): 87.4%
- viability, T/C (second compound 0.01 µM, first compound 0.0949 µM): 89.8%
- viability, T/C (second compound 0.01 µM, first compound 0.3 µM): 80.6%
- viability, T/C (second compound 0.01 µM, first compound 0.949 µM): 73.1%
- viability, T/C (second compound 0.01 µM, first compound 3 µM): 61%
- viability, T/C (second compound 0.0316 µM, first compound 0.00949 µM): 102%
- viability, T/C (second compound 0.0316 µM, first compound 0.03 µM): 82.2%
- viability, T/C (second compound 0.0316 µM, first compound 0.0949 µM): 94.2%
- viability, T/C (second compound 0.0316 µM, first compound 0.3 µM): 77%
- viability, T/C (second compound 0.0316 µM, first compound 0.949 µM): 71.5%
- viability, T/C (second compound 0.0316 µM, first compound 3 µM): 50.7%
- viability, T/C (second compound 0.1 µM, first compound 0.00949 µM): 90.5%
- viability, T/C (second compound 0.1 µM, first compound 0.03 µM): 82.2%
- viability, T/C (second compound 0.1 µM, first compound 0.0949 µM): 77.1%
- viability, T/C (second compound 0.1 µM, first compound 0.3 µM): 75.5%
- viability, T/C (second compound 0.1 µM, first compound 0.949 µM): 63.1%
- viability, T/C (second compound 0.1 µM, first compound 3 µM): 45.3%
- viability, T/C (second compound 0.316 µM, first compound 0.00949 µM): 79.2%
- viability, T/C (second compound 0.316 µM, first compound 0.03 µM): 81.5%
- viability, T/C (second compound 0.316 µM, first compound 0.0949 µM): 78.9%
- viability, T/C (second compound 0.316 µM, first compound 0.3 µM): 69.8%
- viability, T/C (second compound 0.316 µM, first compound 0.949 µM): 67.7%
- viability, T/C (second compound 0.316 µM, first compound 3 µM): 49.8%
- viability, T/C (second compound 1 µM, first compound 0.00949 µM): 80.3%
- viability, T/C (second compound 1 µM, first compound 0.03 µM): 71.2%
- viability, T/C (second compound 1 µM, first compound 0.0949 µM): 72.4%
- viability, T/C (second compound 1 µM, first compound 0.3 µM): 65.7%
- viability, T/C (second compound 1 µM, first compound 0.949 µM): 58.5%
- viability, T/C (second compound 1 µM, first compound 3 µM): 41.4%

- IC50 (second compound 0.0316 µM): > 10 µM
- IC50 (second compound 0.1 µM): > 10 µM
- IC50 (second compound 0.316 µM): 8.23 µM
- IC50 (second compound 1 µM): 5.33 µM
- IC50 (second compound 3.16 µM): 1.38 µM
- IC50 (second compound 10 µM): < 0.0316 µM
SMILES: O=C(c1cc(Cc2n[nH]c(=O)c3ccccc23)ccc1F)N1CCN(C(=O)C2CC2)CC1 + Cc1c(S(C)(=O)=O)c(-c2cc(F)cc(N3CCN(c4ccc(NS(=O)(=O)c5ccc(NC(CCN6CCC(C(=O)OCCCP(=O)(O)O)CC6)CSc6ccccc6)c(S(=O)(=O)C(F)(F)F)c5)cc4)CC3)c2)c(-c2ccc(Cl)cc2)n1C(C)C
- viability, T/C [1]: 100%
- viability, T/C [2]: 95.7%
- viability, T/C [3]: 88.8%
- viability, T/C [4]: 89.3%
- viability, T/C [5]: 85.7%
- viability, T/C [6]: 59.4%
- viability, T/C [7]: 96.3%
- viability, T/C [8]: 102%
- viability, T/C [9]: 86.4%
- viability, T/C [10]: 98.2%
- viability, T/C [11]: 76.2%
- viability, T/C [12]: 54%
- viability, T/C [13]: 94%
- viability, T/C [14]: 92.8%
- viability, T/C [15]: 79.5%
- viability, T/C [16]: 85.9%
- viability, T/C [17]: 61.2%
- viability, T/C [18]: 47.5%
- viability, T/C [19]: 78.8%
- viability, T/C [20]: 80.1%
- viability, T/C [21]: 68.3%
- viability, T/C [22]: 71.2%
- viability, T/C [23]: 61%
- viability, T/C [24]: 37.7%
- viability, T/C (second compound 3.16 µM, first compound 0.0316 µM): 61%
- viability, T/C (second compound 3.16 µM, first compound 0.1 µM): 63.8%
- viability, T/C (second compound 3.16 µM, first compound 0.316 µM): 55.8%
- viability, T/C (second compound 3.16 µM, first compound 1 µM): 56.5%
- viability, T/C (second compound 3.16 µM, first compound 3.16 µM): 35.2%
- viability, T/C (second compound 3.16 µM, first compound 10 µM): 22.1%
- viability, T/C (second compound 10 µM, first compound 0.0316 µM): 52.7%
- viability, T/C (second compound 10 µM, first compound 0.1 µM): 46.4%
- viability, T/C (second compound 10 µM, first compound 0.316 µM): 44.8%
- viability, T/C (second compound 10 µM, first compound 1 µM): 43.4%
- viability, T/C (second compound 10 µM, first compound 3.16 µM): 36.3%
- viability, T/C (second compound 10 µM, first compound 10 µM): 16.5%
